Reference: publication PMC5129982, “Screen-identified selective inhibitor of lysine demethylase 5A blocks cancer cell growth and drug resistance” (Oncotarget, 2016)

Experiments:
FLAG-KDM5C = molecular target: T1, FLAG-KDM5C (Homo sapiens, UniProt P41229); experiment: AlphaScreen KDM5C demethylation assay; type: biochemical
T1 construct: Full-length FLAG-KDM5B, FLAG-KDM5C, and His-FLAG-KDM6A production was detailed previously; FLAG (N); made in house
Method: (§1) Histone demethylase assays were performed as described previously, with the exception of all enzyme reactions containing 125 μM α-KG. Enzymes were used at the following approximate concentrations in validation experiments, chosen based on their activity in AlphaScreen assays: 19 nM FLAG-KDM5A, 15 nM FLAG-KDM5B, 6 nM FLAG-KDM5C, 29 nM His-FLAG-KDM6A, and 16 nM FLAG-KDM6B. 24 nM FLAG-KDM5A was used for Km determination experiments. Reactions were carried out for 1 hour, or were stopped by addition of 30 mM EDTA every 5 minutes for determining enzyme kinetics. Km values were calculated using the Michaelis-Menten non-linear regression analysis on GraphPad Prism 6.0 software. The concentration of DMSO in demethylation reactions was 0.05%. For reactions with catalase, catalase (Sigma C30) or an equal volume of dilution buffer was added to the peptide-containing buffer before addition of the demethylase. The final concentration of catalase in the reactions was 0.01 mg/ml.
(§2) The AlphaScreen general IgG (protein A) detection kit from PerkinElmer Life Sciences was used as described previously. The luminescence emission was recorded at 570 nm using the AlphaScreen optic module on a Pherastar (BMG Labtech) or Envision (PerkinElmer Life Sciences) microplate reader.

[1] = tested on: H3K4 methylation in ZR-75-1 cells; experiment: Western blot of global H3K4 methylation, ZR-75-1; type: cell-based, human; details: ZR-75-1, 48 hour treatment
Method: (§3) Cells were lysed as described previously. Histones were separated by centrifugation, resuspended in Laemmeli buffer, and sonicated. Protein concentration of cell lysates was measured by Bradford assay. Samples in Laemmeli buffer were boiled 10 minutes at 95°C and loaded onto 7% (whole cell lysates) or 18% (histones) SDS-PAGE gels. Membranes were blocked in 4% non-fat milk in Tris-buffered saline with 0.05% Tween (TBS-T) and incubated with primary antibodies in the same buffer or 5% bovine serum albumin in TBS-T overnight at 4°C. Membranes were incubated with secondary anti-rabbit or anti-mouse antibodies for one hour at room temperature. Blots were visualized by Thermo Scientific Pierce ECL Western Blotting Substrate (32106) or EMD Millipore Immobilon Western Chemiluminescent HRP Substrate (WBKLS0100) on film. Signal was quantified using ImageJ software.

[2] = tested on: H3K4 methylation in HeLa cells; experiment: Western blot of global H3K4 methylation, HeLa; type: cell-based, human; details: for H3K4me3 Fold (H3K4me3/Total H3, normalized to DMSO): 48 hr
Method: as §3

[3] = tested on: H3K4 methylation in MCF7 cells; experiment: Western blot of global H3K4 methylation, MCF7; type: cell-based, human; details: 48 hr
Method: as §3

HeLa cells = experiment: Colony formation assay, HeLa; type: cell-based, human; details: two-week treatment, 50 or 100 μM
Method: (§4) Cells were seeded in 6-well plates at low density: HeLa, MCF7, BT474, and PC9 cells at 1000, 2000, 2500, and 2000 cells/well respectively. Media containing the prescribed drugs or 0.1% DMSO was replaced every 3 days. Trastuzumab was used at 5 μg/ml. Gefitinib was used at 2 μM. YUKA1 was used at 50 or 100 μM. Doxycycline was used at 1 μg/ml for 3 days. After 7–42 days depending on the rate of cell growth, cells were fixed in 4% para-formaldehyde in phosphate-buffered saline for 10 minutes rocking at room temperature. They were incubated in 0.05% crystal violet in double-distilled water for 30 minutes rocking at room temperature, washed with water, and dried 24 hours before photographing. ColonyArea, a plugin for ImageJ software, was used for quantification. Unpaired, two-tailed student's t-test calculated using GraphPad Prism 6.0 software was used to determine significance.

MDA-MB-231 cells = experiment: WST-1 proliferation assay, MDA-MB-231; type: cell-based, human; details: MDA-MB-231, 5 days of treatment
Method: (§5) WST-1 reagent from Roche Applied Sciences (11644807001) was used to measure cell number before drug addition and after 3 or 5 days of growth as described previously. Cells were seeded in 96-well plates at the following number of cells per well: HeLa (2000), MCF7 (2000), ZR-75-1 (1000), MCF10A (1000), MDA-MB-231(5000). DMSO was used at 0.1%. Relative absorbance was calculated by subtracting the average background (media only) signal, dividing by the average signal on day 0, and then dividing by the average day 5/day 0 ratio for the DMSO controls. Significance was calculated by unpaired, two-tailed student's t-test using GraphPad Prism 6.0 software.

[4] = tested on: H3K4 methylation in MDA-MB-231 cells; experiment: Western blot of global H3K4 methylation, MDA-MB-231; type: cell-based, human; details: MDA-MB-231, 72 hr treatment
Method: as §3

FLAG-KDM5B = molecular target: T2, FLAG-KDM5B (Homo sapiens, UniProt Q9UGL1); experiment: AlphaScreen KDM5B demethylation assay; type: biochemical
T2 construct: Full-length FLAG-KDM5B, FLAG-KDM5C, and His-FLAG-KDM6A production was detailed previously; FLAG (N); made in house
Method: as §1, §2

BT474 cells = experiment: Colony formation assay, BT474 (trastuzumab tolerance); type: cell-based, human
Method: as §4

MCF10A cells = experiment: WST-1 proliferation assay, MCF10A; type: cell-based, human; details: 5 days of treatment
Method: as §5

T1 sequence (P41229 whole entry): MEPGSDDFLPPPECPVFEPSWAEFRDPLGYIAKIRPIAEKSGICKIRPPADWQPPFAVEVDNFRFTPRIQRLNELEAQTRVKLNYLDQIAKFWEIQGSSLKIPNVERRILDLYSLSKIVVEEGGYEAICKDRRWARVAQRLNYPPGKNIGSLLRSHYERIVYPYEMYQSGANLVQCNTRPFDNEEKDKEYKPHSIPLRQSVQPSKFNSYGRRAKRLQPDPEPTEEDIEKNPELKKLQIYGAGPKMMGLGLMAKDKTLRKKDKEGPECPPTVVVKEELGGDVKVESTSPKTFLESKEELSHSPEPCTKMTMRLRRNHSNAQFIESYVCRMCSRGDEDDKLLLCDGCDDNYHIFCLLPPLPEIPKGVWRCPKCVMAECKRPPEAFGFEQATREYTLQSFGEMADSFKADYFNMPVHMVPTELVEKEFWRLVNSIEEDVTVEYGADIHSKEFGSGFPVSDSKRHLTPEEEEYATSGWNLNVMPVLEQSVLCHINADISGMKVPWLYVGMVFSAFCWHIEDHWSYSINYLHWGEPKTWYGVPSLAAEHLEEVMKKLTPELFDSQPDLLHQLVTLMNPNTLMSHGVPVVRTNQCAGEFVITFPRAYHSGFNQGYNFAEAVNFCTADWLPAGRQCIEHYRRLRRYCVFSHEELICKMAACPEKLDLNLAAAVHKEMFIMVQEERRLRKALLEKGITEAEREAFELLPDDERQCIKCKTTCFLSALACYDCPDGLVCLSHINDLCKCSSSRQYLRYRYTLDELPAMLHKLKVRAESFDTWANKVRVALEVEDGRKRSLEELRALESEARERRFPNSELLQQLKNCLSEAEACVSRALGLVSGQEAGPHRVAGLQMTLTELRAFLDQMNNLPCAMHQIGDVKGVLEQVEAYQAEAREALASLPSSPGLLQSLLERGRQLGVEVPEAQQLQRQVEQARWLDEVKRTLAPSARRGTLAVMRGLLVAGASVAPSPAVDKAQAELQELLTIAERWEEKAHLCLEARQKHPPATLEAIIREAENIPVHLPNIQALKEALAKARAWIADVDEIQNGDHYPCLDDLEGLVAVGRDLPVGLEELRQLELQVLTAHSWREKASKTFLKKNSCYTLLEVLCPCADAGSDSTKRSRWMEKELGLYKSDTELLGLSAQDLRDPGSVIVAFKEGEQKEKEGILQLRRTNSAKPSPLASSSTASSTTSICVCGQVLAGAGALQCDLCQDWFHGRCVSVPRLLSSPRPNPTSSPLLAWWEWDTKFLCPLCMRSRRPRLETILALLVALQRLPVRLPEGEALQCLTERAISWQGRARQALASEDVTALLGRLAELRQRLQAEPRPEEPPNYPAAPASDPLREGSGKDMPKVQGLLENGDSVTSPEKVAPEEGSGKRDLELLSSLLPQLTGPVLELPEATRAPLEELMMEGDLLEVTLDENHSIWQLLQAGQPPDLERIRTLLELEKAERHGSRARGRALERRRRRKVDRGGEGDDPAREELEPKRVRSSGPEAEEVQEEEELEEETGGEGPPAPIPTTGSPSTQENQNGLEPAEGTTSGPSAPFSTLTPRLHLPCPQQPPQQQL
T2 sequence (Q9UGL1 whole entry): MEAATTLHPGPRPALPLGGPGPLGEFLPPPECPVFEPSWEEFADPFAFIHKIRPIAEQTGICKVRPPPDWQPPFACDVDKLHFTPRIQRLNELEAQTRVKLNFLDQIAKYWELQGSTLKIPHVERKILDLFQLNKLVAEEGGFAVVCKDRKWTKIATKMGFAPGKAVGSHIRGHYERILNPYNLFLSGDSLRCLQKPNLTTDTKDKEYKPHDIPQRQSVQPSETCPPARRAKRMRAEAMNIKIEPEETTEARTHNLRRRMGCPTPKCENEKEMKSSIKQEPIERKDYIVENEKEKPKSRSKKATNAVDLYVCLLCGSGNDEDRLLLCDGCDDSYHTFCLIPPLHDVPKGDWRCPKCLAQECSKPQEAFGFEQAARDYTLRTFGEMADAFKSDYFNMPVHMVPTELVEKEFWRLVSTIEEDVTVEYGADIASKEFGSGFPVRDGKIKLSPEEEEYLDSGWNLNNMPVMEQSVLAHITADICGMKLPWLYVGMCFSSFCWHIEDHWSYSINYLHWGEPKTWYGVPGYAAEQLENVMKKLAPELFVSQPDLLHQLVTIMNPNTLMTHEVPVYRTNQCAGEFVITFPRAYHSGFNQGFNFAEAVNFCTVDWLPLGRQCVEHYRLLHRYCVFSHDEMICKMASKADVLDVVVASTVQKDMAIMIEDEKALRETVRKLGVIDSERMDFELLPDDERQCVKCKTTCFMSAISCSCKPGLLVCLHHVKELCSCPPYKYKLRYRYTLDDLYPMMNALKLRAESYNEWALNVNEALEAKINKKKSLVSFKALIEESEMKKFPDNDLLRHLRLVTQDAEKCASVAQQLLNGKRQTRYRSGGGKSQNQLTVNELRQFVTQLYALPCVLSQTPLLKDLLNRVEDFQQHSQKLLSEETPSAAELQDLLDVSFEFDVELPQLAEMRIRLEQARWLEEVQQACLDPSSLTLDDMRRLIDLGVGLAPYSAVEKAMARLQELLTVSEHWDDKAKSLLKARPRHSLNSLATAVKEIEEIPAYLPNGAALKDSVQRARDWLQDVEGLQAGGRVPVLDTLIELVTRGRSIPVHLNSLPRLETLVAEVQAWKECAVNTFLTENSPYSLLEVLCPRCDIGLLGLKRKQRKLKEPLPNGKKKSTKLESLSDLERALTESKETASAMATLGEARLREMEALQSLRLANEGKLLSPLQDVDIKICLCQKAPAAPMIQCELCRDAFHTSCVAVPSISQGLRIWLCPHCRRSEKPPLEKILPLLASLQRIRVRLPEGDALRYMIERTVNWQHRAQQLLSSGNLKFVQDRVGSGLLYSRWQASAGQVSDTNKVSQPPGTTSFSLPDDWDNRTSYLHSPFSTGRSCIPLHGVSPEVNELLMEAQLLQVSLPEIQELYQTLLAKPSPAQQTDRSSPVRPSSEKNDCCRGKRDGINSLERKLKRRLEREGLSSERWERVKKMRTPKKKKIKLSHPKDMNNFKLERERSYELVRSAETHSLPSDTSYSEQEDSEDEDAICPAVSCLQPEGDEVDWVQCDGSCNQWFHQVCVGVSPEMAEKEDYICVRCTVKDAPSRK

Structure (SMILES): C=CCOc1c(CNn2cnnc2S)cccc1OC [YUKA1, 4-([2-(allyloxy)-3-methoxybenzyl]amino)-4H-1,2,4-triazole-3-thiol]
- fold less active against KDM5C (than KDM5A) (FLAG-KDM5C): ~ 3 fold
- IC50 (FLAG-KDM5C; AlphaScreen): 7.12 µM
- global H3K4me3 levels [1]: increased global H3K4me3 levels
- H3K4me2 and H3K4me1 levels ([2]; HeLa): increased
- cell activity by global H3K4 methylation changes ([2]; HeLa and MCF7 cells, western blot): cell-active
- H3K4me3 Fold (H3K4me3/Total H3, normalized to DMSO) ([2]; HeLa, 50 μM): 3.0
- H3K4me3 Fold (H3K4me3/Total H3, normalized to DMSO) ([2]; HeLa, 100 μM): 3.2
- global H3K4me3 levels ([2]; HeLa, 48 hour treatment): dose-dependent increase
- H3K4me3 Fold (H3K4me3/Total H3, normalized to DMSO) ([3]; MCF7, 50 μM): 0.8
- H3K4me3 Fold (H3K4me3/Total H3, normalized to DMSO) ([3]; MCF7, 100 μM): 0.8
- number of colonies formed compared to DMSO (HeLa cells): significantly reduced
- decrease in cell proliferation (MDA-MB-231 cells): 10–15%
- H3K4 methylation [4]: only minor changes
- IC50 (FLAG-KDM5B; AlphaScreen): > 50 µM
- activity against KDM5B (FLAG-KDM5B; at 50 μM): no activity
- cell growth, compound alone (BT474 cells; BT474, 35 days): not changed
- emergence of colonies under trastuzumab (BT474 cells; BT474, plus 5 μg/ml trastuzumab, 42 days): significantly less
- cell proliferation (MCF10A cells): did not hinder cell proliferation
